# Assay results published in PubChem BioAssay (NCI).
#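 In this assay, cells in 96-well plates receive the compound at five concentrations for 48 hours. Endpoints are linearly interpolated between the surrounding concentrations. GI50: concentration for 50% inhibition of growth. TGI: concentration producing complete growth inhibition.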
# What was measured:
# Assay in all cases: NCI-60 cell line screen, 48 h
# MOLT-4 leukemia = system: MOLT-4 leukemia
# UACC-257 melanoma = system: UACC-257 melanoma
# HL-60(TB) leukemia = system: HL-60(TB) leukemia
# SN12C renal = system: SN12C renal
# OVCAR-5 ovarian = system: OVCAR-5 ovarian
# HCT-15 colon = system: HCT-15 colon
# BT-549 breast = system: BT-549 breast
# EKVX NSCLC = system: EKVX NSCLC
# OVCAR-4 ovarian = system: OVCAR-4 ovarian
# SF-539 CNS = system: SF-539 CNS
# SK-OV-3 ovarian = system: SK-OV-3 ovarian
# TK-10 renal = system: TK-10 renal
# NCI-H226 lung = system: NCI-H226 lung
# NCI-H460 lung = system: NCI-H460 lung
# NCI-H522 lung = system: NCI-H522 lung
# UACC-62 melanoma = system: UACC-62 melanoma
# T-47D breast = system: T-47D breast
# SF-295 CNS = system: SF-295 CNS
# U251 CNS = system: U251 CNS
# MDA-MB-435 = system: MDA-MB-435
# IGROV1 ovarian = system: IGROV1 ovarian
# HT29 colon = system: HT29 colon
# HOP-62 NSCLC = system: HOP-62 NSCLC
# SR leukemia = system: SR leukemia
# ACHN renal = system: ACHN renal
# UO-31 renal = system: UO-31 renal
# RPMI-8226 leukemia = system: RPMI-8226 leukemia
# M14 melanoma = system: M14 melanoma
# SNB-75 CNS = system: SNB-75 CNS
# RXF 393 renal = system: RXF 393 renal
# 786-0 renal = system: 786-0 renal
# HOP-92 NSCLC = system: HOP-92 NSCLC
# MDA-MB-231 breast = system: MDA-MB-231 breast
# A498 renal = system: A498 renal
# SW-620 colon = system: SW-620 colon
# CAKI-1 renal = system: CAKI-1 renal
# CCRF-CEM leukemia = system: CCRF-CEM leukemia
# SK-MEL-5 melanoma = system: SK-MEL-5 melanoma
# OVCAR-3 ovarian = system: OVCAR-3 ovarian
# HS 578T breast = system: HS 578T breast
# MCF7 breast = system: MCF7 breast
# SK-MEL-2 melanoma = system: SK-MEL-2 melanoma
# PC-3 prostate = system: PC-3 prostate
# NCI/ADR-RES ovarian = system: NCI/ADR-RES ovarian
# MALME-3M melanoma = system: MALME-3M melanoma
# A549 NSCLC = system: A549 NSCLC
# HCC-2998 colon = system: HCC-2998 colon
# KM12 colon = system: KM12 colon
# DU-145 prostate = system: DU-145 prostate
# OVCAR-8 ovarian = system: OVCAR-8 ovarian
# COLO 205 colon = system: COLO 205 colon
# SK-MEL-28 melanoma = system: SK-MEL-28 melanoma
# HCT-116 colon = system: HCT-116 colon
# SNB-19 CNS = system: SNB-19 CNS
# LOX IMVI melanoma = system: LOX IMVI melanoma
# SF-268 CNS = system: SF-268 CNS
# NCI-H23 lung = system: NCI-H23 lung
smiles,measurement,setting,value
COc1cc(/C=C/C(=O)c2cccnc2Nc2ccc(F)cc2)cc(OC)c1OC,GI50,MOLT-4 leukemia,2.75 µM
same,TGI,MOLT-4 leukemia,9.52 µM
same,GI50,UACC-257 melanoma,2.9 µM
same,TGI,UACC-257 melanoma,21.6 µM
same,GI50,HL-60(TB) leukemia,2.4 µM
same,TGI,HL-60(TB) leukemia,7.15 µM
same,GI50,SN12C renal,3.23 µM
same,TGI,SN12C renal,> 100 µM
same,GI50,OVCAR-5 ovarian,4.1 µM
same,TGI,OVCAR-5 ovarian,17.8 µM
same,GI50,HCT-15 colon,2.28 µM
same,TGI,HCT-15 colon,5.95 µM
same,GI50,BT-549 breast,2.7 µM
same,TGI,BT-549 breast,6.72 µM
same,GI50,EKVX NSCLC,3.94 µM
same,TGI,EKVX NSCLC,> 100 µM
same,GI50,OVCAR-4 ovarian,3.81 µM
same,TGI,OVCAR-4 ovarian,19 µM
same,GI50,SF-539 CNS,2.85 µM
same,TGI,SF-539 CNS,7.29 µM
same,GI50,SK-OV-3 ovarian,3.1 µM
same,TGI,SK-OV-3 ovarian,8.67 µM
same,GI50,TK-10 renal,3.52 µM
same,TGI,TK-10 renal,9.5 µM
same,GI50,NCI-H226 lung,1.79 µM
same,TGI,NCI-H226 lung,3.78 µM
same,GI50,NCI-H460 lung,2.83 µM
same,TGI,NCI-H460 lung,10.1 µM
same,GI50,NCI-H522 lung,2.69 µM
same,TGI,NCI-H522 lung,7.04 µM
same,GI50,UACC-62 melanoma,2.35 µM
same,TGI,UACC-62 melanoma,6.58 µM
same,GI50,T-47D breast,3.96 µM
same,TGI,T-47D breast,25 µM
same,GI50,SF-295 CNS,4.16 µM
same,TGI,SF-295 CNS,69.4 µM
same,GI50,U251 CNS,2.78 µM
same,TGI,U251 CNS,11.5 µM
same,GI50,MDA-MB-435,3.05 µM
same,TGI,MDA-MB-435,69.3 µM
same,GI50,IGROV1 ovarian,7.42 µM
same,TGI,IGROV1 ovarian,50.3 µM
same,GI50,HT29 colon,2.75 µM
same,TGI,HT29 colon,6.69 µM
same,GI50,HOP-62 NSCLC,2.9 µM
same,TGI,HOP-62 NSCLC,7.82 µM
same,GI50,SR leukemia,1.93 µM
same,TGI,SR leukemia,8.36 µM
same,GI50,ACHN renal,2.84 µM
same,TGI,ACHN renal,7.2 µM
same,GI50,UO-31 renal,5.62 µM
same,TGI,UO-31 renal,48 µM
same,GI50,RPMI-8226 leukemia,2.43 µM
same,TGI,RPMI-8226 leukemia,8.07 µM
same,GI50,M14 melanoma,3.19 µM
same,TGI,M14 melanoma,9.94 µM
same,GI50,SNB-75 CNS,1.93 µM
same,TGI,SNB-75 CNS,8.51 µM
same,GI50,RXF 393 renal,2.81 µM
same,TGI,RXF 393 renal,8.97 µM
same,GI50,786-0 renal,3.9 µM
same,TGI,786-0 renal,13 µM
same,GI50,HOP-92 NSCLC,1.67 µM
same,TGI,HOP-92 NSCLC,5.65 µM
same,GI50,MDA-MB-231 breast,3.07 µM
same,TGI,MDA-MB-231 breast,11.8 µM
same,GI50,A498 renal,2.18 µM
same,TGI,A498 renal,8.28 µM
same,GI50,SW-620 colon,3.3 µM
same,TGI,SW-620 colon,24.1 µM
same,GI50,CAKI-1 renal,3.68 µM
same,TGI,CAKI-1 renal,39.5 µM
same,GI50,CCRF-CEM leukemia,2.45 µM
same,TGI,CCRF-CEM leukemia,9.87 µM
same,GI50,SK-MEL-5 melanoma,2.51 µM
same,TGI,SK-MEL-5 melanoma,8.24 µM
same,GI50,OVCAR-3 ovarian,2.63 µM
same,TGI,OVCAR-3 ovarian,6.61 µM
same,GI50,HS 578T breast,3.68 µM
same,TGI,HS 578T breast,95.2 µM
same,GI50,MCF7 breast,2.44 µM
same,TGI,MCF7 breast,13.6 µM
same,GI50,SK-MEL-2 melanoma,2.52 µM
same,TGI,SK-MEL-2 melanoma,5.26 µM
same,GI50,PC-3 prostate,3.95 µM
same,TGI,PC-3 prostate,20 µM
same,GI50,NCI/ADR-RES ovarian,2.37 µM
same,TGI,NCI/ADR-RES ovarian,8.14 µM
same,GI50,MALME-3M melanoma,6.9 µM
same,TGI,MALME-3M melanoma,48.9 µM
same,GI50,A549 NSCLC,2.66 µM
same,TGI,A549 NSCLC,11.5 µM
same,GI50,HCC-2998 colon,1.78 µM
same,TGI,HCC-2998 colon,3.45 µM
same,GI50,KM12 colon,3.72 µM
same,TGI,KM12 colon,17.6 µM
same,GI50,DU-145 prostate,3.32 µM
same,TGI,DU-145 prostate,12.4 µM
same,GI50,OVCAR-8 ovarian,2.69 µM
same,TGI,OVCAR-8 ovarian,13.4 µM
same,GI50,COLO 205 colon,2.64 µM
same,TGI,COLO 205 colon,5.53 µM
same,GI50,SK-MEL-28 melanoma,3.22 µM
same,TGI,SK-MEL-28 melanoma,17.3 µM
same,GI50,HCT-116 colon,1.54 µM
same,TGI,HCT-116 colon,2.96 µM
same,GI50,SNB-19 CNS,3.73 µM
same,TGI,SNB-19 CNS,33.2 µM
same,GI50,LOX IMVI melanoma,1.69 µM
same,TGI,LOX IMVI melanoma,3.59 µM
same,GI50,SF-268 CNS,4.18 µM
same,TGI,SF-268 CNS,17.6 µM
same,GI50,NCI-H23 lung,2.34 µM
same,TGI,NCI-H23 lung,7.77 µM
